Tested on: Desulfovibrio longus ATCC 51456
Test: Biocidal efficacy (bacterial kill) and synergy of glutaraldehyde and surfactants against anaerobic sulfate-reducing bacteria
Format: cell-based
Conditions: 35° C., 10^6 to 10^7 CFU/mL, salt solution
Procedure: Surfactants and biocides were evaluated for synergy by determining the synergy index (S.I.) of the combination. Synergy index was calculated based on the concentration required to achieve a certain level of bacterial kill when the two antimicrobial compounds (A and B) alone and in combinations. The test organism was anaerobic sulfate-reducing bacteria Desulfovibrio longus ATCC #51456. Surf. A R^1O(CH2CH(CH3)O)5(CH2CH2O)6H Surf. B R^1O(CH2CH(CH3)O)5(CH2CH2O)9H where R^1 is 2-ethylhexyl.
Inside an anaerobic chamber (Bactron anaerobic chamber), a deoxygenated sterile salt solution (3.1183 g of NaCl, 1.3082 mg of NaHCO3, 47.70 mg of KCl, 72.00 mg of CaCl2, 54.49 mg of MgSO4, 172.28 mg of Na2SO4, 43.92 mg of Na2CO3 in 1 L water) was inoculated with Desulfovibrio longus ATCC 51456 to a final bacterial concentration of 10^6 to 10^7 CFU/mL. Aliquots of this cell suspension were then treated with glutaraldehyde, and each of Surf A and B at selected active concentrations. After incubation at 35° C. for 2 hours, viable bacteria in the aliquots were enumerated using serial dilution method.
SI is calculated as follows: Ca/CA+Cb/CB=Synergy Index (“SI”)
Wherein: • Ca=Concentration of biocide A required to achieve a certain level of bacterial kill when used in combination with B • CA=Concentration of biocide A required to achieve a certain level of bacterial kill when used alone • Cb=Concentration of biocide B required to achieve a certain level of bacterial kill when used in combination with A • CB=Concentration of biocide B required to achieve a certain level of bacterial kill when used alone When the sum of Ca/CA and Cb/CB is greater than one, antagonism is indicated.

O=CCCCC=O [Glut, glutaraldehyde, (1,5-pentanedial) CAS No. 111-30-8]
Concentration (active ppm) for complete bacterial kill in 2 hours, Glut (Glut concentration alone (1:0) or in combination with Surf. A): 13.2 ppm | Concentration (active ppm) for 99.99% bacterial kill in 2 hours, Glut (Glut concentration alone (1:0) or in combination with Surf. B): 5.9 ppm

R^1O(CH2CH(CH3)O)5(CH2CH2O)9H where R^1 is 2-ethylhexyl [Surf. B]
Concentration (active ppm) for 99.99% bacterial kill in 2 hours, Surf B (Surf. B concentration alone (0:1) or in combination with Glut): >100 ppm

R^1O(CH2CH(CH3)O)5(CH2CH2O)6H where R^1 is 2-ethylhexyl [Surf. A]
Concentration (active ppm) for complete bacterial kill in 2 hours, Surf. A (Surf. A concentration alone (0:1) or in combination with Glut): >100 ppm

Reference: patent publication US9781928B2, “Microbicidal composition” (Dow Global Technologies LLC, priority 2016, dated 2017)
